# Reference: publication PMC6353801, “Enhanced Anti-diabetic Effect of Berberine Combined With Timosaponin B2 in Goto-Kakizaki Rats, Associated With Increased Variety and Exposure of Effective Substances Through Intestinal Absorption” (Frontiers in Pharmacology, 2019)
# Assays:
# [1] = Transport in Caco-2 cells; format: in vitro ADME, human; conditions: human
# Description: The culture medium was changed every other day for the first 7 days and then daily for the next 14 days. […] Prior to the transport experiments, the cell monolayers were washed three times with HBSS at 37°C. […] At the same time, the corresponding opposite side was filled with medium as the receiving chamber. After incubation for 30, 60, 90, and 120 min, 250-μl aliquots of the medium was taken from the receiving chamber at each time point, and prepared for analysis by HPLC–MS/MS. […] where (ΔQ/Δt) is the linear slope of the drug concentration in the receptor chamber over time, A represents the surface area of the membrane (1.12 cm^2), and C0 is the initial concentration of drug in the donor chamber. The efflux ratio (ERpermeability) for BL to AP and AP to BL transport was defined by the following equation: […] where Papp (BL–AP) and Papp (AP–BL) are the apparent permeability of drugs from the basolateral (BL) to apical (AP) and AP to BL sides of the monolayer, respectively.
# [2] = Body weight, food intake, organ coefficients and side effects in GK rats; format: in vivo, rat
# Description: (§1) Four-week-old male GK rats were fed a high-fat diet, and age-matched non-diabetic Wistar rats were fed standard chow as the control group. Under these dietary conditions, blood glucose was estimated each week for 7 weeks in 12-h fasted rats using a portable glucometer (One Touch Sure Step Meter, Johnson & Johnson, United States) by drawing the blood from the tail vein. GK rats with fasting blood glucose levels (FBG) above 16.7 mM were considered as diabetic rats, and only uniformly diabetic rats were used in this study. […] All the drugs were suspended in 0.5% carboxymethylcellulose sodium (CMC-Na) solution for oral gavage (10 ml/kg) once per day (at 9:00) for 6 weeks. Simultaneously, the Wistar and vehicle groups received vehicle over the treatment period. Food consumption and body weight were measured every week throughout the experimental periods. Non-fasting blood glucose (NFBG) levels were determined by collecting blood samples from the tail vein (at 9:00), and FBG levels were determined after a 6-h fast (at 15:00) on days 0, 7, 14, 21, and 42. On day 28, an oral glucose tolerance test (OGTT) was performed after an overnight fast. […] On day 42, the rats were anesthetized with urethane (1.4 g/kg, dissolved in saline) after an overnight fast and were sacrificed to collect the liver, kidney, heart, and spleen. The organs were weighed after washing with saline and drying to calculate the organ coefficient, namely, the ratio between the weight of organs and the body in each rat.
# GK rats = test: NFBG and FBG levels in GK rats, 6-week oral treatment; format: in vivo, rat; conditions: during 6-week treatment, TB-2 33.3, BBR 66.7, TB-2+BBR 100, metformin 200 mg/kg/day
# Description: as §1
# primary rat hepatocytes = test: Hepatic metabolism in primary hepatocytes; conditions: 3 h
# [3] = usually in various species; ref Liu et al., 2016; cited from earlier work
# [4] = Caco-2, no inhibitor, digoxin 10 μM, TB-2 5 μM, BBR 10 μM, n = 3
smiles,measurement,setting,value
"COc1ccc2cc3[n+](cc2c1OC)CCc1cc2c(cc1-3)OCO2 [BBR, berberine]",efflux ratio at 120 min,"[1]; Caco-2, Caco-2, no inhibitor, Papp (BL−AP)/Papp (AP−BL), read-out: ERpermeability (efflux ratio)",71.4
same,Papp A→B at 120 min,[1]; [4],0.038 ± 0.011 ×10⁻⁶ cm/s
same,Papp B→A at 120 min,[1]; [4],2.71 ± 0.355 ×10⁻⁶ cm/s
same,effect on body weight or food consumption vs vehicle,[2]; 6-week oral treatment,no effect
same,effect on organ coefficients (liver and kidney) vs vehicle,[2]; day 42,limited
same,FBG levels compared with the vehicle group (in words),GK rats,no significant differences
same,NFBG levels compared with the vehicle group (in words),GK rats,no significant differences
same,share of compound disappearing after incubation,"primary rat hepatocytes; BBR 1 μM, 37°C",approximately 80%
same,effect on TB-2 levels after incubation,"primary rat hepatocytes; TB-2 1 μM, BBR (5 μM, 30 μM)",no improvement
same,bioavailability,[3],< 1%
